Assay results reported in US20090318468A1, “PYRAZOLE COMPOUNDS 436” (AstraZeneca AB, priority 2008, published 2009).

What was measured:
[1] = target: T1, human cytochrome P450 (CYP) 2C9 (Homo sapiens, UniProt P11712); assay: Cytochrome P450 Inhibition Assay, CYP 2C9; type: in vitro ADME; settings: test compound 0.1-10 μM, substrate MFC
T1 construct: made in house; host or cells: yeast (microsomal fraction)
Method: (§1) Cytochrome P450 Inhibition Assay
Microsomal subcellular fractions prepared from Yeast cell lines expressing each human CYP isoform were used as an enzyme source in this assay. The activity of the 5 major human CYPs was determined from the biotransformation of a number of coumarin substrates to fluorescent metabolites, in the presence of NADPH. […] Stock solutions of each CYP, with its respective substrate, were prepared in phosphate buffer pH 7.4 (see Table 1) and 178 μl was added to the well of a black solid, flat bottom, 300 μl 96 well microtitre plate (Corning Costar). […] After pre-incubating at 37° C. for 5 min the reactions were started with addition of NADPH (20 μl, concentration shown in Table 1). The final solvent content in each incubation was <=2% (1% from the test compound and a maximum of 1% from the substrate). The appropriate solvent controls and substrate blanks were included in each experiment to assess control activity and identify any inherent fluorescence due to the test compounds. In addition, known inhibitors of each CYP were included as positive controls (see Table 3 for inhibitor concentrations and expected IC50 ranges). […] The plates were read on a fluorimeter (Spectrafluor Plus) at the appropriate excitation and emission wavelengths (listed in Table 2) and the percent activity, corrected for control, was plotted against the test compound concentration.

[2] = target: T2, human cytochrome P450 (CYP) 2C19 (Homo sapiens, UniProt P33261); assay: Cytochrome P450 Inhibition Assay, CYP 2C19; type: in vitro ADME; settings: test compound 0.1-10 μM, substrate MFC; read-out: Ic50 2C19
T2 construct: made in house; host or cells: yeast (microsomal fraction)
T2 sequence (P33261 whole entry): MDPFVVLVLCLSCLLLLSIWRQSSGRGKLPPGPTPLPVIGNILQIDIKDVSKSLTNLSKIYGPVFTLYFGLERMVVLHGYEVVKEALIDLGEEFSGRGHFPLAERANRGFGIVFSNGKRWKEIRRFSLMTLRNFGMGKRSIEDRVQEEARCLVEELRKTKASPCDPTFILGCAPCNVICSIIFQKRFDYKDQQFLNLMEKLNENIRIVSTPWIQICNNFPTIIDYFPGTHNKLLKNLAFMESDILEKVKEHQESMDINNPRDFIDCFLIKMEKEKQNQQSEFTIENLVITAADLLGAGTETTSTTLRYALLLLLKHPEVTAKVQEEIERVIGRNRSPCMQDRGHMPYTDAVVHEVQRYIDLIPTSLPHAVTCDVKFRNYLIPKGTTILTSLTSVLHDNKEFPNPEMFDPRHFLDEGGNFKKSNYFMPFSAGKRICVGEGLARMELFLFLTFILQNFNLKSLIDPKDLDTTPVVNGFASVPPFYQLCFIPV
Method: as §1
The inhibitory potential (IC50) of test compounds against 5 human cytochrome P450 (CYP) isoforms (1A2, 2C9, 2C19, 3A4 and 2D6) was assessed using an automated fluorescent end point in vitro assay modified from Crespi (Crespi and Stresser, J Pharmacol Toxicol Methods 2000, 44: 325-331). Microsomal subcellular fractions prepared from Yeast cell lines expressing each human CYP isoform were used as an enzyme source in this assay. The activity of the 5 major human CYPs was determined from the biotransformation of a number of coumarin substrates to fluorescent metabolites, in the presence of NADPH. […] Stock solutions of each CYP, with its respective substrate, were prepared in phosphate buffer pH 7.4 (see Table 1) and 178 μl was added to the well of a black solid, flat bottom, 300 μl 96 well microtitre plate (Corning Costar). […] After pre-incubating at 37° C. for 5 min the reactions were started with addition of NADPH (20 μl, concentration shown in Table 1). The final solvent content in each incubation was <=2% (1% from the test compound and a maximum of 1% from the substrate). The appropriate solvent controls and substrate blanks were included in each experiment to assess control activity and identify any inherent fluorescence due to the test compounds. In addition, known inhibitors of each CYP were included as positive controls (see Table 3 for inhibitor concentrations and expected IC50 ranges). The reactions were stopped at defined timepoints (see Table 1) by quenching with 100 μl of solvent (acetonitrile:0.5M Tris buffer 80:20 v/v). The plates were read on a fluorimeter (Spectrafluor Plus) at the appropriate excitation and emission wavelengths (listed in Table 2) and the percent activity, corrected for control, was plotted against the test compound concentration.

[3] = target: T3, human cytochrome P450 (CYP) 2D6 (Homo sapiens, UniProt P10635); assay: Cytochrome P450 Inhibition Assay, CYP 2D6; type: in vitro ADME; settings: test compound 0.1-10 μM, substrate MAMC
T3 construct: made in house; host or cells: yeast (microsomal fraction)
T3 sequence (P10635 whole entry): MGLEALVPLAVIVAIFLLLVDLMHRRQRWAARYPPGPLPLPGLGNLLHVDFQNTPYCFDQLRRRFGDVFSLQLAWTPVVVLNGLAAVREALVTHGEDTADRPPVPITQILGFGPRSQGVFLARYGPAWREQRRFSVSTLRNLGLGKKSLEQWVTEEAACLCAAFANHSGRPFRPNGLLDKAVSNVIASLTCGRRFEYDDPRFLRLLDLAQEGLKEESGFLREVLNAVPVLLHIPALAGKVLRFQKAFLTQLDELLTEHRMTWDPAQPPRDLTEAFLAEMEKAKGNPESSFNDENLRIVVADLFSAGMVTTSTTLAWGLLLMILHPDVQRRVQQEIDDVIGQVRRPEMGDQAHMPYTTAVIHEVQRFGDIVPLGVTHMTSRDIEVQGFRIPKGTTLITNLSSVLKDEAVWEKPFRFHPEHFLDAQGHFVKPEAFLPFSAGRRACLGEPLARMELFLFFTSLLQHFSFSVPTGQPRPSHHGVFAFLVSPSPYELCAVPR
Method: as §1
The inhibitory potential (IC50) of test compounds against 5 human cytochrome P450 (CYP) isoforms (1A2, 2C9, 2C19, 3A4 and 2D6) was assessed using an automated fluorescent end point in vitro assay modified from Crespi (Crespi and Stresser, J Pharmacol Toxicol Methods 2000, 44: 325-331). Microsomal subcellular fractions prepared from Yeast cell lines expressing each human CYP isoform were used as an enzyme source in this assay. The activity of the 5 major human CYPs was determined from the biotransformation of a number of coumarin substrates to fluorescent metabolites, in the presence of NADPH. […] Stock solutions of each CYP, with its respective substrate, were prepared in phosphate buffer pH 7.4 (see Table 1) and 178 μl was added to the well of a black solid, flat bottom, 300 μl 96 well microtitre plate (Corning Costar). […] The appropriate solvent controls and substrate blanks were included in each experiment to assess control activity and identify any inherent fluorescence due to the test compounds. […] The plates were read on a fluorimeter (Spectrafluor Plus) at the appropriate excitation and emission wavelengths (listed in Table 2) and the percent activity, corrected for control, was plotted against the test compound concentration.

[4] = Protein binding by equilibrium dialysis (human); type: in vitro ADME; settings: 20 μM compound, 10% plasma, 37° C., read-out: % free (protein binding)
Method: Protein binding is determined by equilibrium dialysis. A 20 μM concentration of compound is dialyzed against 10% plasma at a temperature of 37° C. for 18 h. The resulting samples are analyzed using generic HPLC-UV methodology coupled with mass spectral peak identification. The reported K1 value is the first apparent association constant [proteináligand]/([protein][ligand]), all concentrations being measured in moles/liter (J. Med. Chem., 2006, 49(23), 6672-6682).
Protein binding can be measured in a high-throughput screen by equilibrium dialysis combined with liquid chromatography and mass spectrometry (Wan, H. and Rehngren, M., J. Chromatogr. A 2006, 1102, 125-134).

[5] = Clearance (pharmacokinetics) in rats; type: in vivo; settings: rat, whole blood, male rats, dose 0.927 mg/kg (2 umol/kg); for Vd: read-out: Vss
Method: For the rat dose of 0.927 mg/kg (2 umol/kg), the compounds were formulated in 20% DMA:80% sorensens buffer pH 5 at 1 umol/ml. Each formulation was dosed (2 mL/kg) to four male rats (250-300 g) which had free access to food. Blood samples were taken via the tail vein at 5 and 20 minutes, and 1 and 4 hours post dose from 2 rats, and at 10 and 40 minutes, and 2 and 6 hours from the other 2 rats. Terminal samples were taken at 12 hours from the first pair of rats and 24 hours from the second pair. The blood samples were diluted 1:1 with water prior to analysis.
(§2) A set of 10 calibration standards covering the concentration range (0.001 umol/L to 10 umol/L) were prepared by spiking blank matrix (1:1 blood:water). The samples and standards were extracted using a solid phase extraction plate, blown down under nitrogen, and then reconstituted in methanol:water (20:80). The samples were analysed using LC-MSMS and the results obtained were used to determine the area under the curve from time 0 to infinity [AUC0-inf (ug.hr/ml)], clearance [Cl (ml/min/kg)] and the steady state volume distribution [Vss (L/kg)] for each compound.

[6] = Clearance (pharmacokinetics) in dogs; type: in vivo; settings: dog, whole blood, dose 0.927 mg/kg (2 umol/kg); for Vd: read-out: Vss
Method: For the dog dose of 0.927 mg/kg (2 umol/kg), the compounds were formulated in 10% DMSO:90% hydroxyl-propyl-β-cyclodextrin (25% w/v) in sorensens buffer pH 5 at 2 umol/ml. Each formulation was dosed (1 mL/kg) to a male and female dog (8-15 kg) which had been fasted overnight. Blood samples were taken via the jugular vein at 5, 10, 20 and 40 minutes, and 1, 2, 4, 6, 12 and 24 hours post dose. The blood samples were diluted 1:1 with water prior to anaylsis.
as §2

T1 sequence (P11712 whole entry): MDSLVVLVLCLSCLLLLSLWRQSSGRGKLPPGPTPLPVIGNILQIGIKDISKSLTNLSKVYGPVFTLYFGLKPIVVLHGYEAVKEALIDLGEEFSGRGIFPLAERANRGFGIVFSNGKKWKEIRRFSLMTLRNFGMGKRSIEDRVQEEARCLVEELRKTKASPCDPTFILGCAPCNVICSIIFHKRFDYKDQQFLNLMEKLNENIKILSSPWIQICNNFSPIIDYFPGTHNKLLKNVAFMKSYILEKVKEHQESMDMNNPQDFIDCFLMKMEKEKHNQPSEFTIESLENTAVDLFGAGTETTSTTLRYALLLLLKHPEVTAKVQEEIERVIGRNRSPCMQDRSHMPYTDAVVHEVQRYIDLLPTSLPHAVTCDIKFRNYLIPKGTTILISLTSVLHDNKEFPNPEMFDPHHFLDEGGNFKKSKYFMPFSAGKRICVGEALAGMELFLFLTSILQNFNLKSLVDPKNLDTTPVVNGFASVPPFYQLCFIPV

Question: For `COc1cc(CCc2cc(NC(=O)c3ccc(N4CCN(C)[C@@H](C)C4)cc3)[nH]n2)cc(OC)c1` [Example 1a, (S)—N-(3-(3,5-Dimethoxyphenethyl)-1H-pyrazol-5-yl)-4-(3,4-dimethylpiperazin-1-yl)benzamide], which IC50 [1] is on record?
Answer: 3.76 µM

Question: And the IC50 [2]?
Answer: > 10 µM

Question: And the IC50 [3]?
Answer: > 10 µM

Question: And the fraction unbound at 18 h, 20 μM [4]?
Answer: 0.0372

Question: What about the AUC(0-inf) [5] of the same compound?
Answer: 254 ng·h/mL

Question: What about the clearance [5] of the same compound?
Answer: 60.9 mL/min/kg

Question: And the Vd [5]?
Answer: 2.58 L/kg

Question: What about the AUC(0-inf) ([6]; female dogs) of the same compound?
Answer: 427 ng·h/mL

Question: And the clearance ([6]; female dogs)?
Answer: 36.2 mL/min/kg

Question: What about the Vd ([6]; female dogs) of the same compound?
Answer: 7.08 L/kg

Question: And the AUC(0-inf) ([6]; male dogs)?
Answer: 585 ng·h/mL

Question: What about the clearance ([6]; male dogs) of the same compound?
Answer: 26.4 mL/min/kg

Question: And the Vd ([6]; male dogs)?
Answer: 3.71 L/kg

Question: For `COc1cc(CCc2cc(NC(=O)c3ccc(N4CCN(C)[C@H](C)C4)cc3)[nH]n2)cc(OC)c1` [Example 1b, (R)—N-(3-(3,5-Dimethoxyphenethyl)-1H-pyrazol-5-yl)-4-(3,4-dimethylpiperazin-1-yl)benzamide], which IC50 [1] is on record?
Answer: 9.12 µM

Question: What about the IC50 [2] of the same compound?
Answer: 8.01 µM

Question: What about the IC50 [3] of the same compound?
Answer: > 10 µM

Question: What about the fraction unbound at 18 h, 20 μM [4] of the same compound?
Answer: 0.0279

Question: And the AUC(0-inf) [5]?
Answer: 473 ng·h/mL

Question: What about the clearance [5] of the same compound?
Answer: 32.7 mL/min/kg

Question: And the Vd [5]?
Answer: 1.74 L/kg

Question: And the AUC(0-inf) ([6]; female dogs)?
Answer: 1350 ng·h/mL

Question: What about the clearance ([6]; female dogs) of the same compound?
Answer: 11.5 mL/min/kg

Question: What about the Vd ([6]; female dogs) of the same compound?
Answer: 1.71 L/kg

Question: What about the AUC(0-inf) ([6]; male dogs) of the same compound?
Answer: 1240 ng·h/mL

Question: What about the clearance ([6]; male dogs) of the same compound?
Answer: 12.5 mL/min/kg

Question: And the Vd ([6]; male dogs)?
Answer: 6.55 L/kg
